Data on four compounds can be found in paper PMC5299597, “Evaluation of the safety, pharmacokinetics, pharmacodynamics, and drug-drug interaction potential of a selective Lp-PLA2 inhibitor (GSK2647544) in healthy volunteers” (International Journal of Clinical Pharmacology and …, 2016).

A short description of series [1]: Study 2: safety and tolerability (adverse events). To be noted: by treatment: simvastatin 10 mg SD N = 12; GSK2647544 80 mg b.i.d. 7 days + simvastatin N = 9.
On the set-up of series [2]: method as in PMID 9461591. Particulars: DM/HC pigs, vs untreated; cited from earlier work.
The target in series [3] is T1, CYP3A4 (Homo sapiens, UniProt P08684). Particulars: A1+S vs S, the 9 subjects who received both.
Series [4] concerns the target T1, CYP3A4. Description: clinical. Particulars: plasma, oral; for AUC(0-t): AUC(0-t) of analyte; for AUC(0-t) / Cmax: geometric mean (CVb%); for Cmax: Cmax of analyte.
The conditions of series [5]: phase 2a study; cited from earlier work.
Setting [6] is: 10 mg, S = simvastatin 10 mg SD alone.
Where [7] appears, read: A1+S = simvastatin 10 mg SD plus GSK2647544 80 mg b.i.d. for 7 days.
[8] abbreviates: P1+S = simvastatin 10 mg SD plus matched placebo b.i.d. for 7 days.

T1 sequence (P08684 whole entry): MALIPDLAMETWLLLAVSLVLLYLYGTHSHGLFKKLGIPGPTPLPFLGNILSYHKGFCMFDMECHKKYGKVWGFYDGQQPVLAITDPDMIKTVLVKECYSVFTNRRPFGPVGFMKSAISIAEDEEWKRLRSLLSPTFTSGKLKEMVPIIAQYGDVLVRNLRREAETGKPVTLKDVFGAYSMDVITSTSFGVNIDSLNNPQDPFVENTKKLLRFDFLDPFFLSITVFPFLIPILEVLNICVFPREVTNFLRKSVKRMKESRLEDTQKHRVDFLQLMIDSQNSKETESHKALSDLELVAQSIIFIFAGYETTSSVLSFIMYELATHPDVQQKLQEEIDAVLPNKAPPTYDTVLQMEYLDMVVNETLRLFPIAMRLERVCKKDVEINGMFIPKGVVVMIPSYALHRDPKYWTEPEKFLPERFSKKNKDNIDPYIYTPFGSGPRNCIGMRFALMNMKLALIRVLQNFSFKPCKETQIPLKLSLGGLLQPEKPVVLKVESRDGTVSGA

Consider `CCC(C)(C)C(=O)O[C@H]1C[C@@H](C)C=C2C=C[C@H](C)[C@H](CC[C@@H]3C[C@@H](O)CC(=O)O3)[C@H]21` [Simvastatin, simvastatin], for which, in series [1], the Abdominal discomfort is recorded as 0 n (%), the Abdominal distention is listed as 0 n (%), the “Any AE” value is 1 (8%) n (%) and the Application site rash was 1 (8%) n (%). Further, in series [1], the Arthragia is reported as 0 n (%), the Back pain is 0 n (%), the Dizziness is recorded as 0 n (%) and the Eructation is listed as 0 n (%). For the same compound, in series [1], the Headache is listed as 0 n (%), the Nasopharyngitis is given as 0 n (%), the Pain in extremity is 0 n (%) and the Pollakiuria was 1 (8%) n (%).

As for `CCN(CC)CCN(Cc1ccc(-c2ccc(C(F)(F)F)cc2)cc1)C(=O)Cn1c(SCc2ccc(F)cc2)nc(=O)c2c1CCC2` [darapladib], in series [2], the “extent of immunoglobulin-G brain parenchyma penetration” value is recorded as “numerically reduced” and the “total amount of brain amyloid-β peptide 1-42 deposition” value is “significantly lowered”.

What is called AUC(0-t) is exposure summed from dosing to a finite time, without extrapolation to infinity. In general, Cmax refers to the highest concentration seen after dosing. The term Tmax denotes the time from dosing to the highest level. Take `CCC(C)(C)C(=O)O[C@H]1C[C@@H](C)C=C2C=C[C@H](C)[C@H](CC[C@@H](O)C[C@@H](O)CC(=O)O)[C@H]21` [Simvastatin acid, simvastatin acid]: the “Ratio of geometric means (90% CI), AUC(0-t)” value at CYP3A4 [3] was 3.09 (1.05, 9.03). In addition, the “Ratio of geometric means (90% CI), AUC(0–∞)” value on CYP3A4 [3] is on record as 1.50 (0.48, 4.71). For the same compound, the “Ratio of geometric means (90% CI), Cmax” value at CYP3A4 [3] is given as 2.30 (1.46, 3.63). Moreover, the AUC(0-t) at CYP3A4 [4] (setting [6]) was found to be 2.49 ng·h/mL; at CYP3A4 [4] (setting [7]), 7.93 ng·h/mL; on CYP3A4 [4] (setting [8]), 2.14 ng·h/mL. The Cmax came out at 0.504 ng/mL on CYP3A4 [4] (setting [6]), 1.3 ng/mL at CYP3A4 [4] (setting [7]) and 0.351 ng/mL at CYP3A4 [4] (setting [8]). Further, the Tmax at CYP3A4 [4] (10 mg, tmax of analyte, median (range), S = simvastatin 10 mg SD alone) came to 4.04 h; at CYP3A4 [4] (median tmax of analyte, simvastatin alone) it was 4 h; at CYP3A4 [4] (median tmax of analyte, simvastatin in combination with GSK2647544), 6 h; at CYP3A4 [4] (tmax of analyte, median (range), A1+S = simvastatin 10 mg SD plus GSK2647544 80 mg b.i.d. for 7 days), 5.92 h; on CYP3A4 [4] (tmax of analyte, median (range), P1+S = simvastatin 10 mg SD plus matched placebo b.i.d. for 7 days) it was 5.92 h.

For `COCCN1CCC(N(Cc2ccc(-c3ccc(C(F)(F)F)cc3)cc2)C(=O)Cn2c(SCc3cccc(F)c3F)cc(=O)c3ccccc32)CC1` [rilapladib], in series [5], the cognitive outcomes is given as “improved cognitive outcomes”.
